The IC50 is the concentration at which inhibition is half-maximal. Low values mean inhibition by little substance, high ones a need for much substance. By EC50 is commonly meant the concentration at which the effect is half-maximal.

Here are results for four compounds from ChEMBL document CHEMBL1128713, “N-alkylated nitrogen-in-the-ring sugars: conformational basis of inhibition of glycosidases and HIV-1 replication” (J Med Chem, 1995).

Converted amounts (≈) assume the structure as drawn. A value given as a limit tells only on which side of the number the result lay.

Assay [1] deals with T1, Alpha-mannosidase 2C1 (Rattus norvegicus, UniProt P21139).
T1 sequence (P21139 whole entry): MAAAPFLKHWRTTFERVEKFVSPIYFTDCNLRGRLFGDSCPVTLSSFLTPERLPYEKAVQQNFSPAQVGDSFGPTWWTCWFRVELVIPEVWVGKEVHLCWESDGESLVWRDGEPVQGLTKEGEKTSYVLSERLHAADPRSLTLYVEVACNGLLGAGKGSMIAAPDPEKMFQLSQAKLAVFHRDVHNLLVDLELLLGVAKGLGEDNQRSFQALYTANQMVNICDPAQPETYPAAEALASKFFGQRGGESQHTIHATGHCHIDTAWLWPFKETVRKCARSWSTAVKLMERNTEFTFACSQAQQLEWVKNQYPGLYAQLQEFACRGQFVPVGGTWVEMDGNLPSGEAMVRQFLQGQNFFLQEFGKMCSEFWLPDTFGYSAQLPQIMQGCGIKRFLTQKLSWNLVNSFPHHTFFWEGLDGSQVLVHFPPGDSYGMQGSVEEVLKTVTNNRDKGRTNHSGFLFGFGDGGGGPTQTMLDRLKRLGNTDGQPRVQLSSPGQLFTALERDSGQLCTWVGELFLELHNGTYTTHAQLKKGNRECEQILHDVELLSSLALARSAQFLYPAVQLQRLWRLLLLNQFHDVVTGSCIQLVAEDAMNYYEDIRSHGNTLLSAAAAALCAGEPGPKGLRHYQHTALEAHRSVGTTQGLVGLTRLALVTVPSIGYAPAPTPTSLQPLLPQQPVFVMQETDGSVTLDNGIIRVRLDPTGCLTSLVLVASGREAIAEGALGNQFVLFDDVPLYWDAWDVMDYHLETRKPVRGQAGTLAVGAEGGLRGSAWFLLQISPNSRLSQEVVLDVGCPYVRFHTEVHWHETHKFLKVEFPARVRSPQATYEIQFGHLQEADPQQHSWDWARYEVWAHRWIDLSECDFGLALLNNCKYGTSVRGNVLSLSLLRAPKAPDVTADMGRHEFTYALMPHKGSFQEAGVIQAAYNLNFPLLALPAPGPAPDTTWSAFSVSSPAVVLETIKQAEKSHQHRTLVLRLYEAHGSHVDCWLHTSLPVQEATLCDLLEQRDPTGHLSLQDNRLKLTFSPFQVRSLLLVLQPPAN
The assay can be described thus: Inhibition of soluble Alpha-mannosidase II in rat liver. In kind it is tissue-based.

The test system of assay [2] is MT4. The assay can be described thus: Concentration giving 50% inhibition of HIV-1 induced cytopathogenicity in MT-4 cells. Type of assay: functional, cell-based, Homo sapiens.

In turn, `CCCCN1C[C@H](O)[C@@H](O)[C@H](O)[C@H]1CO` registered an IC50 in assay [1] below 50 µM. This compound came in with an EC50 in assay [2] of 49 mg/L (≈ 223 µM).

Compound `CCCCN1C[C@@H](O)[C@H](O)[C@H]1CO` came in with an IC50 in assay [1] below 50 µM. In assay [2], this compound returned an EC50 above 100 mg/L.

Take `CN1C[C@H](O)[C@@H](O)[C@H](O)[C@H]1CO`: in assay [1], inhibition was half-maximal at 500 µM (IC50). The compound further showed a concentration giving a half-maximal response (EC50) in assay [2] of 69 mg/L (≈ 389 µM).

`CN1C[C@@H](O)[C@H](O)[C@H]1CO` registered an IC50 in assay [1] below 50 µM. This compound also yielded an EC50 in assay [2] above 100 mg/L.
